Experimental data published in US7183411B2, “Naphthol, quinoline and isoquinoline-derived urea modulators of vanilloid VR1 receptor” (Janssen Pharmaceutica N.V., priority 2002, dated 2007).
Read-outs that look alike come from different tables or passages of the source.

What was measured:
[1] = target: recombinant rat VR1 (rVR1/HEK293) (Rattus norvegicus, UniProt O35433); assay: Broadly stimulated recombinant rat VR1 functional assay (Ca2+ influx, FLIPR); conditions: for IC50: recombinant rat VR1, Ca2+ influx
Description: In an effort to identify potent and efficacious antagonists at human and rat VR1 that were active under conditions simulating aspects of in vivo inflammation functional assays were developed using FLIPR to determine antagonist activity against endogenous activators and stimuli likely to be present in inflammation. Cell lines were constructed that stably expressed recombinant rat VR1 (rVR1/HEK293). Cells were exposed to various stimuli at their EC80, with the exception of the low pH and DTT stimuli.
These studies were corroborated and further studies were performed to confirm that the phorbol ester effect was not due to direct effects on the channel. […] Cells were challenged with 300 nM PMA (˜EC80) after 3 min in the indicated antagonist.
Cells were challenged with 5–10 mM DTT to stimulate VR1 after 3 min incubation in compound.
We performed assays similar to those described for the human recombinant receptor with the exception that a lower pH was required in the Ca^2+ influx assay at the rat recombinant receptor.

human VR1 [2] = target: T1, human VR1 (Homo sapiens, UniProt Q8NER1); assay: Broadly stimulated recombinant human VR1 functional assay (Ca2+ influx, FLIPR); type: cell-based
T1 construct: expressed in transfected cells; host or cells: HEK293

human VR1 [3] = target: T1, human VR1; assay: Human VR1 functional assay (FLIPR intracellular Ca2+, capsaicin challenge); type: cell-based; conditions: read-out: In vitro functional assays hIC50 or EC50
Method: The functional activity of the test compounds was determined by measuring changes in intracellular calcium concentration using a Ca^++-sensitive fluorescent dye and FLIPR™ technology.
HEK293 Cells expressing human VR1 were grown on poly-D-lysine coated 96 well black-walled plates (BD 354640) and 2 days later loaded with Fluo-3/AM for 1 hour and subsequently tested for agonist-induced increases in intracellular Ca^2+ levels using FLIPR™ technology. […] EC50 or IC50 values were determined from dose-response studies.

[4] = target: T2, human VR1 vanilloid receptors (Homo sapiens, UniProt Q8NER1); assay: [3H] RTX binding assay, hVR1 membranes from transfected HEK293 cells; conditions: for Ki: human VR1, read-out: Receptor binding Ki
T2 construct: expressed in transfected cells; host or cells: HEK293
Method: Compounds of the present invention were tested for their ability to inhibit the binding of [^3H] RTX to hVR1 receptors in a [^3H] RTX binding assay as previously described (Zhang, Sui-Po. Improved ligand binding assays for vanilloid receptors. PCT Int. Appl. (2002), 29 pp. CODEN: PIXXD2 WO 0233411 A1 20020425 AN 2002:315209; Grant, Elfrida R.; Dubin, Adrienne E.; Zhang, Sui-Po; Zivin, Robert A.; Zhong, Zhong Simultaneous intracellular calcium and sodium flux imaging in human vanilloid receptor 1 (VR1)-transfected human embryonic kidney cells: a method to resolve ionic dependence of VR1-mediated cell death. Journal of Pharmacology and Experimental Therapeutics (2002), 300(1), 9–17.)
HEK293 cells were transfected with human VR1 vanilloid receptors and washed with Hank's Balanced Salt Solution, dissociated with cell dissociation buffer (Sigma), and then centrifuged at 1000×g for 5 min. Cell pellets were homogenized in cold 20 mM HEPES buffer, pH 7.4, containing 5.8 mM NaCl, 320 mM sucrose, 2 mM MgCl2, 0.75 CaCl2 and 5 mM KCl and centrifuged at 1000×g for 15 min. The resultant supernate was then centrifuged at 40000×g for 15 min. The pelleted membranes were kept in an −80° C. freezer.
Approximately 120 μg protein/ml from membranes were incubated with indicated concentrations of [^3H] RTX in 0.5 ml of the HEPES buffer (pH 7.4) containing 0.25 mg/mL fatty acid-free bovine serum albumin at 37° C. for 60 min. The reaction mixture was then cooled to 4° C., 0.1 mg α1-acid glycoprotein added to each sample and incubated at 4° C. for 15 min. The samples were centrifuged at 18500×g for 15 min. The tip of the microcentrifuge tube containing the pellet was cut off. Bound radioactivity was quantified by scintillation counting. Non-specific binding was tested in the presence of 200 nM unlabeled RTX.

[5] = system: Carrageenan paw-induced thermal hyperalgesia; assay: Carrageenan paw-induced thermal hyperalgesia; type: in vivo; conditions: rat, po, reversal of carrageenan thermal hyperalgesia; read-out: CgHP ED50
Method: Each rat is placed on a heated surface (51° C.) in order to measure the time necessary to elicit a response, and an initial (baseline) response time to a thermal stimuli was recorded for each animal. A response is defined as any shaking, licking, or tucking of the treated paw or jumping. Animals not treated with a test compound respond in approximately 20 seconds. The maximal exposure time permitted is 60 seconds to prevent tissue damage. Rats were injected with an irritant (e.g., 1% carrageenan solution in 0.9% saline) subcutaneously into the sub-plantar tissue of the left hind paw to stimulate an acute inflammatory reaction.
Two hours later, the response time of the animal to the thermal stimulus was evaluated and compared to the animal's baseline response time. This shorter response time was recorded as percent hyperalgesia (% H). A cut-off value for % H (usually 75%) was used during analysis to ensure that the animals were hyperalgesic. Animals were then dosed with test drug or vehicle.
At some time(s) later (typically 45 and 90 minutes), the response time of the animal to the thermal stimulus was again evaluated. For each time point, a percent reversal of hyperalgesia (% R) was calculated using the following formula: % R=(Drug Latency−Carrageenan latency)/(Baseline latency−Carrageenan latency). ED50 values were calculated from % R obtained at several drug doses.

[6] = target: T3, VR1 expressed endogenously on small rat dorsal root ganglion (DRG) neurons (Rattus norvegicus, UniProt O35433); assay: Electrophysiologic functional assay using dissociated rat DRG cells; type: cell-based; conditions: read-out: In vitro functional assays Estimated pA2 (rat) (converted)
T3 construct: VR1 expressed endogenously on small rat dorsal root ganglion (DRG) neurons; endogenous in cells; host or cells: dissociated rat DRG neurons
Method: Compounds are tested for their activity on VR1 expressed endogenously on small rat dorsal root ganglion (DRG) neurons. DRG neurons from normal rats were dissociated (see methods in Chaplan et al., 2003) and whole cell currents mediated by VR1 were recorded using the whole cell patch clamp technique.

[7] = recombinant human VR1, Ca2+ influx, stimulus 300 nM PMA, read-out: IC50, PKC phosphorylation
[8] = recombinant human VR1, Ca2+ influx, stimulus low pH (pH 6.5), read-out: IC50, Low pH

recombinant rat VR1 (rVR1/HEK293), sequence (O35433 whole entry): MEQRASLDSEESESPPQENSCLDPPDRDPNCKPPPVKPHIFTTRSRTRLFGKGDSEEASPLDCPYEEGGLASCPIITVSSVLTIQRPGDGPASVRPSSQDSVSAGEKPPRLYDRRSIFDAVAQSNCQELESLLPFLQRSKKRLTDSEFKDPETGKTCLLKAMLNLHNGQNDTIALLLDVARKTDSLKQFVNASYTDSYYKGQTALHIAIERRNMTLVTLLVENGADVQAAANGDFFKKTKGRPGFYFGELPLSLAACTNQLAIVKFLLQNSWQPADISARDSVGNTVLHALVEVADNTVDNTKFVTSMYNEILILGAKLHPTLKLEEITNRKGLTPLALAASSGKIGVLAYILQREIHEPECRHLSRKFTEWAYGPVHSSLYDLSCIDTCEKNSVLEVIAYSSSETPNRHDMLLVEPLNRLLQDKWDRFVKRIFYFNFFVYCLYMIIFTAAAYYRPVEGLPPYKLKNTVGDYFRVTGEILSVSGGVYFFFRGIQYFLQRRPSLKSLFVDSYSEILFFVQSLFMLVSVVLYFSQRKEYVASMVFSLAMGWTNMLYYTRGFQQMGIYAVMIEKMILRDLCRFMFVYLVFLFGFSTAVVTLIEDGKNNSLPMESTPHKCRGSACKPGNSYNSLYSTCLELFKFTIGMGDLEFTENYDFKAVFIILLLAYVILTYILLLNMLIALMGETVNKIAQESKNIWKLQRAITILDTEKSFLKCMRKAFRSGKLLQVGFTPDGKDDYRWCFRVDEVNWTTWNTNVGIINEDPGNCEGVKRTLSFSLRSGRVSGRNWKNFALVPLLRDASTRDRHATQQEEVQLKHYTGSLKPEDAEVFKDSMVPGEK
T1 sequence (Q8NER1 whole entry): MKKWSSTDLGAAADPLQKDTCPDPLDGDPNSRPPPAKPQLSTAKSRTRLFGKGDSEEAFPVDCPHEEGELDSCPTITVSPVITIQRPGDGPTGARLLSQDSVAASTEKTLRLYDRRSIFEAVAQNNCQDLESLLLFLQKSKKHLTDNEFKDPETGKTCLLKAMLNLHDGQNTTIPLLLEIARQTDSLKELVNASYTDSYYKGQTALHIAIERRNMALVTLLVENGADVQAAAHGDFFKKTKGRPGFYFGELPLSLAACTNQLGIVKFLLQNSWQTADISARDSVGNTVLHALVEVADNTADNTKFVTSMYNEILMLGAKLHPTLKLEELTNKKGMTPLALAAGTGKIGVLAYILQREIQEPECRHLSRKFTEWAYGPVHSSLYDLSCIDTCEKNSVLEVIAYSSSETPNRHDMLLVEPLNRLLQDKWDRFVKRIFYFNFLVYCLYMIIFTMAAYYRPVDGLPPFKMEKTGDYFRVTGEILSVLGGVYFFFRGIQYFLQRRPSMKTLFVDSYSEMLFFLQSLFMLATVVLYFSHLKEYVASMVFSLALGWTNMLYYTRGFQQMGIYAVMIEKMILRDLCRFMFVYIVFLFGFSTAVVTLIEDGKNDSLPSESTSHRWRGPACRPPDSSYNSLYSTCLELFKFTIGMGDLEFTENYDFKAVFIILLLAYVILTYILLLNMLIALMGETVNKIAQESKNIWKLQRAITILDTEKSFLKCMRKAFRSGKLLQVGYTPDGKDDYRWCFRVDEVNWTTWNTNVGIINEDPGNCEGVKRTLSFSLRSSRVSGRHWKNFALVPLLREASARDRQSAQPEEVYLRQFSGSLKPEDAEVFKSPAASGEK
T2 sequence (Q8NER1 whole entry): as above
T3 sequence (O35433 whole entry): as the sequence (O35433 whole entry) above

SMILES | IC50 or EC50 (human VR1 [3]) [µM] | Ki [4] [µM] | further results
Oc1cc2c(cc1O)CN(C(=S)NCCc1ccc(Cl)cc1)CCC2 [Capsazepine, capsazepine] |  |  | IC50 ([1]; IC50, Anandamide, stimulus anandamide 10 μM): 1.3 µM; IC50 ([1]; IC50, Low pH, stimulus low pH (pH 5.9)): 5 µM; IC50 ([1]; IC50, PKC phosphorylation at low pH, PMA at low pH): 10 µM; IC50 ([1]; IC50, PKC phosphorylation, stimulus 300 nM PMA): 10 µM; IC50 (human VR1 [2]; human recombinant receptor, FIG. 1, read-out: potency to inhibit Ca2+ activity induced by the panel of stimuli): 0.1 to 0.3 µM; IC50 (human VR1 [2]; recombinant human VR1, Ca2+ influx, PMA at low pH, read-out: IC50, PKC phosphorylation at low pH): 0.37 µM; IC50 (human VR1 [2]; [7]): 0.16 µM; IC50 (human VR1 [2]; [8]): 0.11 µM
O=C(NCCc1ccc(Cl)c(Cl)c1)Nc1cccc2cnccc12 [Compound 1] | 0.008 | 0.0126 | 
O=C(NCCc1cccc(C(F)(F)F)c1)Nc1cccc2cnccc12 [Compound 2] | 0.019 | 0.0412 | 
O=C(NCCc1ccc(Cl)cc1)Nc1cccc2cnccc12 [Compound 3] | 0.036 | 0.0887 | 
O=C(NCc1ccc(C(F)(F)F)cc1)Nc1cccc2cnccc12 [Compound 4] |  | 0.00687 | ED50 [5]: 0.804 mg/kg
O=C(NCc1ccc(Cl)c(Cl)c1)Nc1cccc2cnccc12 [Compound 5] | 0.004 | 0.00887 | 
O=C(NCc1ccc(Cl)cc1)Nc1cccc2cnccc12 [Compound 6] | 0.0056 | 0.031 | 
O=C(NCc1cccc(C(F)(F)F)c1)Nc1cccc2cnccc12 [Compound 7] | 0.011 | 0.0227 | 
Cc1cc2c(NC(=O)NCc3ccc(Cl)c(Cl)c3)cccc2cn1 [Compound 8] | 0.018 | 0.0129 | 
Cc1cc2c(NC(=O)NCc3cccc(C(F)(F)F)c3)cccc2cn1 [Compound 9] | 0.0094 | 0.039 | 
COc1ccc(C(CNC(=O)Nc2cccc3cnccc23)CC2CCCCC2)cc1 (stereo not shown) [Compound 12] |  | 0.00562 | 
CC(C)(C)c1ccc(CNC(=O)Nc2cccc3ccc(O)cc23)cc1 [Compound 13] | 0.02 | 0.00012 | 
O=C(NCc1ccc(Cl)cc1)Nc1cccc2ccc(O)cc12 [Compound 14] | 0.0049 | 0.00327 | 
O=C(NCc1cccnc1)Nc1cccc2ccc(O)cc12 [Compound 15] | 3.7 |  | inhibition at 1 µM ([4]; human VR1, 1 μM compound, read-out: Receptor binding % Inhibition @ 1 μM): 11%
O=C(NCc1ccc(OC(F)(F)F)cc1)Nc1cccc2ccc(O)cc12 [Compound 16] | 0.027 | 0.00011 | 
O=C(NCc1ccc(C(F)(F)F)cc1)Nc1cccc2ccc(O)cc12 [Compound 17] | 0.004 | 0.0001 | ED50 [5]: 20 mg/kg
O=C(NCc1ccccc1)Nc1cccc2ccc(O)cc12 [Compound 18] | 0.045 | 0.0935 | 
O=C(NCc1cccc(C(F)(F)F)c1)Nc1cccc2ccc(O)cc12 [Compound 19] | 0.026 | 0.00038 | 
COc1ccc(CCNC(=O)Nc2cccc3cnccc23)cc1 [Compound 21] | 0.68 | 1.29 | 
O=C(NCc1ccc(OC(F)(F)F)cc1)Nc1cccc2cnccc12 [Compound 22] | 0.0033 | 0.00128 | 
O=C(NCCc1ccccc1)Nc1cccc2ccc(O)cc12 [Compound 23] |  | 0.0535 | 

SMILES | IC50 or EC50 (human VR1 [3]) [µM] | Ki [4] [µM] | further results
O=C(Nc1cccc2ccc(O)cc12)N(Cc1ccccc1)Cc1ccccc1 [Compound 25] |  | 3.28 | 
CN(Cc1ccccc1)C(=O)Nc1cccc2ccc(O)cc12 [Compound 26] | 10 | 18.6 | 
O=C(NCCc1ccc(Cl)c(Cl)c1)Nc1cccc2ccc(O)cc12 [Compound 27] | 0.097 | 0.00122 | 
O=C(NCc1ccc(C(F)(F)F)nc1)Nc1cccc2ccc(O)cc12 [Compound 29] | 0.044 | 0.0361 | 
CN(Cc1ccc(Cl)c(Cl)c1)C(=O)Nc1cccc2ccc(O)cc12 [Compound 30] |  | 0.581 | 
O=C(NCc1ccc(Cl)c(Cl)c1)Nc1cccc2ccc(O)cc12 [Compound 31] | 0.015 | 0.00203 | 
O=C(NCc1nc2ccccc2[nH]1)Nc1cccc2ccc(O)cc12 [Compound 32] |  | 2.54 | 
CC(C)(C)c1ccc(CCNC(=O)Nc2cccc3cnccc23)cc1 [Compound 35] | 0.0058 | 0.0013 | 
O=C(NCCc1ccc(C(F)(F)F)cc1)Nc1cccc2cnccc12 [Compound 36] |  | 0.0224 | 
COc1ccc(CNC(=O)Nc2cccc3cnccc23)cc1 [Compound 37] | 0.045 | 0.193 | 
O=C(NCCc1ccc(OC(F)(F)F)cc1)Nc1cccc2cnccc12 [Compound 38] | 0.011 | 0.00603 | 
O=C(NCc1ccc(F)c(F)c1)Nc1cccc2ccc(O)cc12 [Compound 42] |  | 0.00722 | 
O=C(NCc1ccc(Cl)cc1Cl)Nc1cccc2ccc(O)cc12 [Compound 47] |  | 0.00279 | 
O=C(NCc1ccc(C(F)(F)F)cc1)Nc1cccc2c(Cl)nccc12 [Compound 55, 1-(1-Chloro-isoquinolin-5-yl)-3-(4-trifluoromethyl-benzyl)-urea] |  | 0.00735 | Kb [6]: < 0.03 µM
O=C(NCc1cc(C(F)(F)F)cc(C(F)(F)F)c1)Nc1cccc2ccc(O)cc12 [Compound 58] |  | 0.00516 | 
O=C(NCc1ccc(C(F)(F)F)cc1)Nc1cccc2cncc(Cl)c12 [Compound 59] |  | 7.34 | 
CN(CC1CCCCC1)c1ccc(CNC(=O)Nc2cnc3ccccc3c2)cc1 [Compound 65] | 10 | 0.129 | 
OO [Compound H2O2, H2O2] |  |  | EC80 for H2O2-induced Ca2+ flux (human VR1 [2]; VR1/HEK cells, species not stated): 0.015 % H2O2
CCCCCCCCCCCCCC(=O)O[C@@H]1[C@@H](C)[C@@]2(O)[C@@H](C=C(CO)C[C@]3(O)C(=O)C(C)=C[C@@H]23)[C@@H]2C(C)(C)[C@]12OC(C)=O [PMA, phorbol-12-myristate-13-acetate] |  |  | EC50 ([1]; read-out: EC50 (increase in intracellular Ca2+), agonist at rat recombinant VR1): 0.09 µM; EC50 (human VR1 [2]; agonist at human recombinant VR1, read-out: EC50 (increase in intracellular Ca2+)): 0.09 µM
Cl.Cl.Cl.Cl.Cl.Cl.N.N.N.N.N.N.N.N.N.N.N.N.N.N.[O-2].[O-2].[Ru+3].[Ru+3].[Ru+4] [Ruthenium Red, ruthenium red] |  |  | IC50 ([1]; read-out: IC50, Anandamide, stimulus anandamide 10 μM): 1.86 µM; IC50 ([1]; read-out: IC50, PKC phosphorylation, stimulus 300 nM PMA): 0.3 µM; IC50 (human VR1 [2]; [7]): 0.5 µM; IC50 (human VR1 [2]; [8]): 0.5 µM
CCCCC/C=C\C/C=C\C/C=C\C/C=C\CCCC(=O)NCCO [anandamide, Anandamide] |  |  | EC50 [1]: 5 µM; EC50 (human VR1 [2]): 3 µM
